The values below are quoted from earlier work in US20120195875A1, “DETECTION OF IMMUNE MODULATION RESULTING FROM REDUCED PROTEIN PHOSPHATASE 2A ACTIVITY” (CEDARS-SINAI MEDICAL CENTER, priority 2011, published 2012).

The subject of series [1] is murine peritoneal macrophages.

Consider `COC[C@@H]([C@H](O)[C@H](O)C(=O)NCC[C@H](C)c1nc(/C=C/C[C@@H]2O[C@]3(C[C@@H](O)[C@@H]2C)O[C@H]([C@H](C[C@H](O)[C@H](C)[C@H](O)[C@H](C)/C=C(C)/C(C)=C/C=C/C(C)=C\C#N)OC)[C@H](OP(=O)(O)O)C3(C)C)co1)N(C)C` [calyculin A], for which, in the series with macrophages, the “LPS-induced TNF-α, IL-1β, IFN-β, IP-10, IRF-1, and TNFR-2 release” value is listed as “inhibit”; the LPS-induced macrophage responses result was “inhibits”.
Consider `C=C1[C@@H](O)[C@@H]2O[C@]3(CC[C@H](/C=C/[C@@H](C)[C@@H]4CC(C)=C[C@@]5(O[C@H](C[C@@](C)(O)C(=O)O)CC[C@H]5O)O4)O3)CC[C@H]2O[C@@H]1[C@@H](O)C[C@H](C)[C@H]1O[C@@]2(CCCCO2)CC[C@H]1C` [okadaic acid], for which, in series [1] (1 h before the first or 16 h before the second LPS stimulation), the LPS tolerance result was “reversed LPS tolerance”. In series [1] (in response to primary LPS stimulation), the p38 phosphorylation entry is “inhibition”. Besides, the “phosphorylation of ERK-1/ERK-2, JNK/SAPK and p38/SAPK-2” value in series [1] (in response to second LPS stimulation) is “restored and prolonged”.
